In article PMC6584481, “Quercetin protects rats from catheter‐related Staphylococcus aureus infections by inhibiting coagulase activity” (Journal of Cellular and Molecular Medicine, 2019):

Assays:
Assay type in all cases: binding
Coagulase (Coa) [1] = target: T1, Coagulase (Coa) (Staphylococcus aureus, UniProt P17855, H230A); experiment: fluorescence spectroscopy quenching (KA); conditions: read-out: H228A (converted)
T1 sequence (P17855 27-715 H230A): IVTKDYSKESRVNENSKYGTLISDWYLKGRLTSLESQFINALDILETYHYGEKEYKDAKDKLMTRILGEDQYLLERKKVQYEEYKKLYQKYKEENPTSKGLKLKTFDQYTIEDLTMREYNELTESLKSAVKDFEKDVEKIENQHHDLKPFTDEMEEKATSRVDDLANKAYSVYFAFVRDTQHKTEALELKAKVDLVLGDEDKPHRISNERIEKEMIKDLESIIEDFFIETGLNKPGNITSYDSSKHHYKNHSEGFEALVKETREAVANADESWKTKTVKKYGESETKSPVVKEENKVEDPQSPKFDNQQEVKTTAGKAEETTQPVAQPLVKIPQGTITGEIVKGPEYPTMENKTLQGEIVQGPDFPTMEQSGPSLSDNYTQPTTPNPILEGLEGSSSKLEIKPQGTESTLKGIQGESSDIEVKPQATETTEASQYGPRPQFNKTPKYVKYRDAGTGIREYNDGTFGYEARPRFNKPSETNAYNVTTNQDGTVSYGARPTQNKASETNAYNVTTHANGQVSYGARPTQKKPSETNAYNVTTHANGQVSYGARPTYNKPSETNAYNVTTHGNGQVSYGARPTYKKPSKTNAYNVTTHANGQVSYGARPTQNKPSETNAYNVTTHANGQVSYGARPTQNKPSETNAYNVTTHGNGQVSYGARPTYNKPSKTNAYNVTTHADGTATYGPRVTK

Coagulase (Coa) [2] = target: Coagulase (Coa) (Staphylococcus aureus, UniProt P17855); experiment: fluorescence spectroscopy quenching (KA); thermal shift of […]°C; plasma/blood coagulation inhibition with recombinant Coa; conditions: read-out: WT-Coa (converted)
Coagulase (Coa) [3] = target: T2, Coagulase (Coa) (Staphylococcus aureus, UniProt P17855, L223A); experiment: fluorescence spectroscopy quenching (KA); conditions: read-out: L221A (converted)
T2 sequence (P17855 27-715 L223A): T1 sequence (P17855 27-715 H230A)

O=c1c(O)c(-c2ccc(O)c(O)c2)oc2cc(O)cc(O)c12 [quercetin, 3,3′,4′,5,7‐pentahydroxyflavone] gave a Kd (Coagulase (Coa) [1]) of 25 µM, a Kd (Coagulase (Coa) [2]) of 21.7 µM and a Kd (Coagulase (Coa) [3]) of 32.3 µM.
